{"source": "PubChem BioAssay AID2060330", "about": "(Molecular Pharmacology Branch, DTP, NCI, 2025);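 note: spheroids exposed to compounds for seven days before readout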;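 for viability, T/C: T/C percent relative to DMSO vehicle wells set as 100% viability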", "system": "LG0703-F948-PDC spheroids with HUVEC/MSC, viability", "assay": "Anticancer human tumor LG0703-F948-PDC patient-derived lung adenocarcinoma cell line growth inhibition [IpAb]", "settings": "for IC50: curve of first compound; for viability, T/C: stronger effect = lower value", "summary_of_the_method": "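Combinations with ipatasertib or abemaciclib were tested on tumour spheroids holding HUVEC (25%) and MSC (15%) alongside 60% malignant cells. Top concentration was at or near clinical Cmax (10 microM if undefined), descending in half-log steps.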", "key": {"[1]": {"settings": "second compound 0.01 µM, first compound 0.0316 µM"}, "[2]": {"settings": "second compound 0.01 µM, first compound 0.1 µM"}, "[3]": {"settings": "second compound 0.0316 µM, first compound 0.0316 µM"}, "[4]": {"settings": "second compound 0.0316 µM, first compound 0.1 µM"}, "[5]": {"settings": "second compound 0.1 µM, first compound 0.0316 µM"}, "[6]": {"settings": "second compound 0.1 µM, first compound 0.1 µM"}, "[7]": {"settings": "second compound 0.316 µM, first compound 0.0316 µM"}, "[8]": {"settings": "second compound 0.316 µM, first compound 0.1 µM"}, "[9]": {"settings": "second compound 1 µM, first compound 0.0316 µM"}, "[10]": {"settings": "second compound 1 µM, first compound 0.1 µM"}}, "data": [{"smiles": "C=CCn1c(=O)c2cnc(Nc3ccc(N4CCN(C)CC4)cc3)nc2n1-c1cccc(C(C)(C)O)n1", "note": "+ CCN1CCN(Cc2ccc(Nc3ncc(F)c(-c4cc(F)c5nc(C)n(C(C)C)c5c4)n3)nc2)CC1", "values": [{"measurement": "IC50", "setting": "second compound 0.01 µM", "result": 1160, "unit": "nM"}, {"measurement": "IC50", "setting": "second compound 0.0316 µM", "result": 1010, "unit": "nM"}, {"measurement": "IC50", "setting": "second compound 0.1 µM", "result": 898, "unit": "nM"}, {"measurement": "IC50", "setting": "second compound 0.316 µM", "result": 862, "unit": "nM"}, {"measurement": "IC50", "setting": "second compound 1 µM", "result": 421, "unit": "nM"}, {"measurement": "viability, T/C", "setting": "[1]", "result": 120, "unit": "%"}, {"measurement": "viability, T/C", "setting": "[2]", "result": 101, "unit": "%"}, {"measurement": "viability, T/C", "setting": "second compound 0.01 µM, first compound 0.316 µM", "result": 86, "unit": "%"}, {"measurement": "viability, T/C", "setting": "second compound 0.01 µM, first compound 1 µM", "result": 58.9, "unit": "%"}, {"measurement": "viability, T/C", "setting": "second compound 0.01 µM, first compound 3.16 µM", "result": 17.3, "unit": "%"}, {"measurement": "viability, T/C", "setting": "second compound 0.01 µM, first compound 10 µM", "result": 8.27, "unit": "%"}, {"measurement": "viability, T/C", "setting": "[3]", "result": 99.6, "unit": "%"}, {"measurement": "viability, T/C", "setting": "[4]", "result": 94.1, "unit": "%"}, {"measurement": "viability, T/C", "setting": "second compound 0.0316 µM, first compound 0.316 µM", "result": 78.7, "unit": "%"}, {"measurement": "viability, T/C", "setting": "second compound 0.0316 µM, first compound 1 µM", "result": 53.2, "unit": "%"}, {"measurement": "viability, T/C", "setting": "second compound 0.0316 µM, first compound 3.16 µM", "result": 16.6, "unit": "%"}, {"measurement": "viability, T/C", "setting": "second compound 0.0316 µM, first compound 10 µM", "result": 6.85, "unit": "%"}, {"measurement": "viability, T/C", "setting": "[5]", "result": 95.8, "unit": "%"}, {"measurement": "viability, T/C", "setting": "[6]", "result": 76.5, "unit": "%"}, {"measurement": "viability, T/C", "setting": "second compound 0.1 µM, first compound 0.316 µM", "result": 71.2, "unit": "%"}, {"measurement": "viability, T/C", "setting": "second compound 0.1 µM, first compound 1 µM", "result": 53.5, "unit": "%"}, {"measurement": "viability, T/C", "setting": "second compound 0.1 µM, first compound 3.16 µM", "result": 16, "unit": "%"}, {"measurement": "viability, T/C", "setting": "second compound 0.1 µM, first compound 10 µM", "result": 4.26, "unit": "%"}, {"measurement": "viability, T/C", "setting": "[7]", "result": 85.3, "unit": "%"}, {"measurement": "viability, T/C", "setting": "[8]", "result": 79.6, "unit": "%"}, {"measurement": "viability, T/C", "setting": "second compound 0.316 µM, first compound 0.316 µM", "result": 69.4, "unit": "%"}, {"measurement": "viability, T/C", "setting": "second compound 0.316 µM, first compound 1 µM", "result": 47.7, "unit": "%"}, {"measurement": "viability, T/C", "setting": "second compound 0.316 µM, first compound 3.16 µM", "result": 21.4, "unit": "%"}, {"measurement": "viability, T/C", "setting": "second compound 0.316 µM, first compound 10 µM", "result": 7.46, "unit": "%"}, {"measurement": "viability, T/C", "setting": "[9]", "result": 88.4, "unit": "%"}, {"measurement": "viability, T/C", "setting": "[10]", "result": 69.8, "unit": "%"}, {"measurement": "viability, T/C", "setting": "second compound 1 µM, first compound 0.316 µM", "result": 51.8, "unit": "%"}, {"measurement": "viability, T/C", "setting": "second compound 1 µM, first compound 1 µM", "result": 40.1, "unit": "%"}, {"measurement": "viability, T/C", "setting": "second compound 1 µM, first compound 3.16 µM", "result": 21.8, "unit": "%"}, {"measurement": "viability, T/C", "setting": "second compound 1 µM, first compound 10 µM", "result": 3.5, "unit": "%"}]}, {"smiles": "CC(C)n1nc(-c2ccc3oc(N)nc3c2)c2c(N)ncnc21", "note": "+ CCN1CCN(Cc2ccc(Nc3ncc(F)c(-c4cc(F)c5nc(C)n(C(C)C)c5c4)n3)nc2)CC1", "values": [{"measurement": "IC50", "setting": "second compound 0.01 µM", "result": 4.38, "unit": "nM"}, {"measurement": "IC50", "setting": "second compound 0.0316 µM", "result": 3.3, "unit": "nM"}, {"measurement": "IC50", "setting": "second compound 0.1 µM", "result": 4.23, "unit": "nM"}, {"measurement": "IC50", "setting": "second compound 0.316 µM", "result": 6.16, "unit": "nM"}, {"measurement": "IC50", "setting": "second compound 1 µM", "result": 3.98, "unit": "nM"}, {"measurement": "viability, T/C", "setting": "second compound 0.01 µM, first compound 0.000316 µM", "result": 112, "unit": "%"}, {"measurement": "viability, T/C", "setting": "second compound 0.01 µM, first compound 0.001 µM", "result": 78.6, "unit": "%"}, {"measurement": "viability, T/C", "setting": "second compound 0.01 µM, first compound 0.00316 µM", "result": 56.5, "unit": "%"}, {"measurement": "viability, T/C", "setting": "second compound 0.01 µM, first compound 0.01 µM", "result": 38, "unit": "%"}, {"measurement": "viability, T/C", "setting": "[1]", "result": 24, "unit": "%"}, {"measurement": "viability, T/C", "setting": "[2]", "result": 21.4, "unit": "%"}, {"measurement": "viability, T/C", "setting": "second compound 0.0316 µM, first compound 0.000316 µM", "result": 87.9, "unit": "%"}, {"measurement": "viability, T/C", "setting": "second compound 0.0316 µM, first compound 0.001 µM", "result": 70.1, "unit": "%"}, {"measurement": "viability, T/C", "setting": "second compound 0.0316 µM, first compound 0.00316 µM", "result": 52, "unit": "%"}, {"measurement": "viability, T/C", "setting": "second compound 0.0316 µM, first compound 0.01 µM", "result": 33.9, "unit": "%"}, {"measurement": "viability, T/C", "setting": "[3]", "result": 22.3, "unit": "%"}, {"measurement": "viability, T/C", "setting": "[4]", "result": 21.8, "unit": "%"}, {"measurement": "viability, T/C", "setting": "second compound 0.1 µM, first compound 0.000316 µM", "result": 87.4, "unit": "%"}, {"measurement": "viability, T/C", "setting": "second compound 0.1 µM, first compound 0.001 µM", "result": 71.2, "unit": "%"}, {"measurement": "viability, T/C", "setting": "second compound 0.1 µM, first compound 0.00316 µM", "result": 52.1, "unit": "%"}, {"measurement": "viability, T/C", "setting": "second compound 0.1 µM, first compound 0.01 µM", "result": 40.5, "unit": "%"}, {"measurement": "viability, T/C", "setting": "[5]", "result": 29.3, "unit": "%"}, {"measurement": "viability, T/C", "setting": "[6]", "result": 22.3, "unit": "%"}, {"measurement": "viability, T/C", "setting": "second compound 0.316 µM, first compound 0.000316 µM", "result": 82.5, "unit": "%"}, {"measurement": "viability, T/C", "setting": "second compound 0.316 µM, first compound 0.001 µM", "result": 77.1, "unit": "%"}, {"measurement": "viability, T/C", "setting": "second compound 0.316 µM, first compound 0.00316 µM", "result": 58.4, "unit": "%"}, {"measurement": "viability, T/C", "setting": "second compound 0.316 µM, first compound 0.01 µM", "result": 43, "unit": "%"}, {"measurement": "viability, T/C", "setting": "[7]", "result": 32, "unit": "%"}, {"measurement": "viability, T/C", "setting": "[8]", "result": 24.8, "unit": "%"}, {"measurement": "viability, T/C", "setting": "second compound 1 µM, first compound 0.000316 µM", "result": 90, "unit": "%"}, {"measurement": "viability, T/C", "setting": "second compound 1 µM, first compound 0.001 µM", "result": 65, "unit": "%"}, {"measurement": "viability, T/C", "setting": "second compound 1 µM, first compound 0.00316 µM", "result": 48.1, "unit": "%"}, {"measurement": "viability, T/C", "setting": "second compound 1 µM, first compound 0.01 µM", "result": 46.6, "unit": "%"}, {"measurement": "viability, T/C", "setting": "[9]", "result": 44.1, "unit": "%"}, {"measurement": "viability, T/C", "setting": "[10]", "result": 28.8, "unit": "%"}]}]}
